Assays:
Assay type in all cases: in vivo
[1] = tested on: large crabgrass (Digitaria sanguinalis, DIGSA); test: Pre-emerge greenhouse herbicide test, phytotoxicity rating; conditions: Digitaria sanguinalis, pre-emergence, 336 h, 14 days after application, rating scale 0-100; for pest or weed control at 125 g/ha: Rate 125 g al/ha; for pest or weed control at 500 g/ha: Rate 500 g al/ha
In short: (§1)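 Seeds sown in sandy loam one day before track-sprayer application of acetone solutions at 125–1000 g ai/ha (187 l/ha), then surface-watered to incorporate and bottom-watered. Injury scored visually at 14 days on a 0–100 scale (0 no damage, 100 complete death).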

[2] = tested on: lambsquarters (Chenopodium album, CHEAL); test: as above; conditions: Chenopodium album, pre-emergence, 336 h, 14 days after application, rating scale 0-100; for pest or weed control at 125 g/ha: Rate 125 g al/ha; for pest or weed control at 500 g/ha: Rate 500 g al/ha
In short: as §1

[3] = tested on: green foxtail (Setaria viridis, SETVI); test: as above; conditions: Setaria viridis, pre-emergence, 336 h, 14 days after application, rating scale 0-100; for pest or weed control at 125 g/ha: Rate 125 g al/ha; for pest or weed control at 500 g/ha: Rate 500 g al/ha
In short: as §1

[4] = tested on: ivyleaf morningglory (Ipomoea hederacea, IPOHE); test: as above; conditions: Ipomoea, pre-emergence, 336 h, 14 days after application, rating scale 0-100; for pest or weed control at 125 g/ha: Rate 125 g al/ha; for pest or weed control at 500 g/ha: Rate 500 g al/ha
In short: as §1

[5] = tested on: redroot pigweed (Amaranthus retroflexus, AMARE); test: as above; conditions: Amaranthus retroflexus, pre-emergence, 336 h, 14 days after application, rating scale 0-100; for pest or weed control at 125 g/ha: Rate 125 g al/ha; for pest or weed control at 500 g/ha: Rate 500 g al/ha
In short: as §1

[6] = tested on: velvetleaf (Abutilon theophrasti, ABUTH); test: as above; conditions: Abutilon theophrasti, pre-emergence, 336 h, 14 days after application, rating scale 0-100; for pest or weed control at 125 g/ha: Rate 125 g al/ha; for pest or weed control at 500 g/ha: Rate 500 g al/ha
In short: as §1

[7] = tested on: large crabgrass (Digitaria sanguinalis, DIGSA); test: Post-emerge greenhouse herbicide test, phytotoxicity rating; conditions: Digitaria sanguinalis, post-emergence, 336 h, 14 days after application, scale 0-100; for pest or weed control at 63 g/ha: rate 63 g ai/ha; for pest or weed control at 500 g/ha: rate 500 g ai/ha
In short: (§2)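 Plants at the 2-3 leaf stage, sown 8-21 days earlier, were track-sprayed post-emergence with compound in acetone plus 0.25% v/v non-ionic surfactant at 63-1000 g ai/ha (187 l/ha). Damage was rated at 14 days on a 0-100 scale (0 none, 100 all plants dead), for both crop injury and weed control.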

[8] = tested on: barnyardgrass (Echinochloa crusgalli, ECHCG); test: as above; conditions: Echinochloa crus-galli, post-emergence, 336 h, 14 days after application, scale 0-100; for pest or weed control at 63 g/ha: rate 63 g ai/ha; for pest or weed control at 500 g/ha: rate 500 g ai/ha
In short: as §2

[9] = tested on: lambsquarters (Chenopodium album, CHEAL); test: as above; conditions: Chenopodium album, post-emergence, 336 h, 14 days after application, scale 0-100; for pest or weed control at 63 g/ha: rate 63 g ai/ha; for pest or weed control at 500 g/ha: rate 500 g ai/ha
In short: as §2

[10] = tested on: green foxtail (Setaria viridis, SETVI); test: as above; conditions: Setaria viridis, post-emergence, 336 h, 14 days after application, scale 0-100; for pest or weed control at 63 g/ha: rate 63 g ai/ha; for pest or weed control at 500 g/ha: rate 500 g ai/ha
In short: as §2

[11] = tested on: sicklepod (Cassia obtusifolia, CASOB); test: as above; conditions: Senna obtusifolia, post-emergence, 336 h, 14 days after application, scale 0-100; for pest or weed control at 63 g/ha: rate 63 g ai/ha; for pest or weed control at 500 g/ha: rate 500 g ai/ha
In short: as §2

[12] = tested on: ivyleaf morningglory (Ipomoea hederacea, IPOHE); test: as above; conditions: Ipomoea, post-emergence, 336 h, 14 days after application, scale 0-100; for pest or weed control at 63 g/ha: rate 63 g ai/ha; for pest or weed control at 500 g/ha: rate 500 g ai/ha
In short: as §2

[13] = tested on: Johnsongrass (Sorghum halepense, SORHA); test: as above; conditions: Sorghum halepense, post-emergence, 336 h, 14 days after application, scale 0-100; for pest or weed control at 63 g/ha: rate 63 g ai/ha; for pest or weed control at 500 g/ha: rate 500 g ai/ha
In short: as §2

[14] = tested on: redroot pigweed (Amaranthus retroflexus, AMARE); test: as above; conditions: Amaranthus retroflexus, post-emergence, 336 h, 14 days after application, scale 0-100; for pest or weed control at 63 g/ha: rate 63 g ai/ha; for pest or weed control at 500 g/ha: rate 500 g ai/ha
In short: as §2

[15] = tested on: velvetleaf (Abutilon theophrasti, ABUTH); test: as above; conditions: Abutilon theophrasti, post-emergence, 336 h, 14 days after application, scale 0-100; for pest or weed control at 63 g/ha: rate 63 g ai/ha; for pest or weed control at 500 g/ha: rate 500 g ai/ha
In short: as §2

`Nn1c(C(F)(F)F)cc(=O)n(-c2cc(Oc3nccc(Cl)n3)c(Cl)cc2F)c1=O` [Compound 9-17, 1-Amino-3-[4-chloro-2-fluoro-5-(4-chloro-2-pyrimidyloxy)phenyl]-6-trifluoromethyl-1,2,3,4-tetrahydropyrimidine-2,4-dione] gave a pest or weed control at 125 g/ha [1] of 30%, a pest or weed control at 500 g/ha [1] of 100% and a pest or weed control at 125 g/ha [2] of 100%. It also gave a pest or weed control at 500 g/ha [2] of 100%, a pest or weed control at 125 g/ha [3] of 90% and a pest or weed control at 500 g/ha [3] of 100%. For the same molecule, the pest or weed control at 125 g/ha [4] was 20%, the pest or weed control at 500 g/ha [4] was 100% and the pest or weed control at 125 g/ha [5] was 100%. It also gave a pest or weed control at 500 g/ha [5] of 100%, a pest or weed control at 125 g/ha [6] of 100% and a pest or weed control at 500 g/ha [6] of 100%. It also gave a pest or weed control at 63 g/ha [7] of 10%, a pest or weed control at 500 g/ha [7] of 10% and a pest or weed control at 63 g/ha [8] of 0%. The pest or weed control at 500 g/ha [8] was 60%, the pest or weed control at 63 g/ha [9] was 80% and the pest or weed control at 500 g/ha [9] was 90%. The pest or weed control at 63 g/ha [10] was 10%, the pest or weed control at 500 g/ha [10] was 10% and the pest or weed control at 63 g/ha [11] was 0%. It also gave a pest or weed control at 500 g/ha [11] of 0%, a pest or weed control at 63 g/ha [12] of 100% and a pest or weed control at 500 g/ha [12] of 95%. For the same molecule, the pest or weed control at 63 g/ha [13] was 0%, the pest or weed control at 500 g/ha [13] was 80% and the pest or weed control at 63 g/ha [14] was 95%. The pest or weed control at 500 g/ha [14] was 95%, the pest or weed control at 63 g/ha [15] was 100% and the pest or weed control at 500 g/ha [15] was 100%.

`Nn1c(C(F)(F)F)cc(=O)n(-c2cc(Oc3cccc(Cl)n3)c(Cl)cc2F)c1=O` [Compound 9-5, 1-Amino-3-[4-chloro-2-fluoro-5-(6-chloro-2-pyridyloxy)phenyl]-6-trifluoromethyl-1,2,3,4-tetrahydropyrimidine-2,4-dione] was tested, and the pest or weed control at 125 g/ha [1] was 95%, the pest or weed control at 500 g/ha [1] was 100% and the pest or weed control at 125 g/ha [2] was 100%. The pest or weed control at 500 g/ha [2] was 100%, the pest or weed control at 125 g/ha [3] was 100% and the pest or weed control at 500 g/ha [3] was 100%. For the same molecule, the pest or weed control at 125 g/ha [4] was 70%, the pest or weed control at 500 g/ha [4] was 50% and the pest or weed control at 125 g/ha [5] was 100%. The pest or weed control at 500 g/ha [5] was 100%, the pest or weed control at 125 g/ha [6] was 100% and the pest or weed control at 500 g/ha [6] was 100%. The pest or weed control at 63 g/ha [7] was 0%, the pest or weed control at 500 g/ha [7] was 80% and the pest or weed control at 63 g/ha [8] was 20%. For the same molecule, the pest or weed control at 500 g/ha [8] was 100%, the pest or weed control at 63 g/ha [9] was 90% and the pest or weed control at 500 g/ha [9] was 100%. It also gave a pest or weed control at 63 g/ha [10] of 30%, a pest or weed control at 500 g/ha [10] of 90% and a pest or weed control at 63 g/ha [11] of 100%. The pest or weed control at 500 g/ha [11] was 100%, the pest or weed control at 63 g/ha [12] was 100% and the pest or weed control at 500 g/ha [12] was 90%. It also gave a pest or weed control at 63 g/ha [13] of 50%, a pest or weed control at 500 g/ha [13] of 100% and a pest or weed control at 63 g/ha [14] of 100%. For the same molecule, the pest or weed control at 500 g/ha [14] was 100%, the pest or weed control at 63 g/ha [15] was 90% and the pest or weed control at 500 g/ha [15] was 100%.

Molecule `Nn1c(C(F)(F)F)cc(=O)n(-c2cc(Oc3ccccc3[N+](=O)[O-])c(Cl)cc2F)c1=O` [Compound 9-21, 1-amino-3-[4-chloro-2-fluoro-5-(2-nitrophenoxy)phenyl]-6-trifluoromethyl-1,2,3,4-tetrahydropyrimidine-2,4-dione] has a pest or weed control at 125 g/ha [1] of 100%, a pest or weed control at 500 g/ha [1] of 100% and a pest or weed control at 125 g/ha [2] of 100%. It also gave a pest or weed control at 500 g/ha [2] of 100%, a pest or weed control at 125 g/ha [3] of 100% and a pest or weed control at 500 g/ha [3] of 100%. For the same molecule, the pest or weed control at 125 g/ha [4] was 60%, the pest or weed control at 500 g/ha [4] was 100% and the pest or weed control at 125 g/ha [5] was 100%. The pest or weed control at 500 g/ha [5] was 100%, the pest or weed control at 125 g/ha [6] was 100% and the pest or weed control at 500 g/ha [6] was 100%. It also gave a pest or weed control at 63 g/ha [7] of 30%, a pest or weed control at 500 g/ha [7] of 90% and a pest or weed control at 63 g/ha [8] of 70%. The pest or weed control at 500 g/ha [8] was 100%, the pest or weed control at 63 g/ha [9] was 100% and the pest or weed control at 500 g/ha [9] was 100%. The pest or weed control at 63 g/ha [10] was 90%, the pest or weed control at 500 g/ha [10] was 100% and the pest or weed control at 63 g/ha [11] was 100%. It also gave a pest or weed control at 500 g/ha [11] of 100%, a pest or weed control at 63 g/ha [12] of 100% and a pest or weed control at 500 g/ha [12] of 100%. For the same molecule, the pest or weed control at 63 g/ha [13] was 60%, the pest or weed control at 500 g/ha [13] was 90% and the pest or weed control at 63 g/ha [14] was 100%. It also gave a pest or weed control at 500 g/ha [14] of 100%, a pest or weed control at 63 g/ha [15] of 100% and a pest or weed control at 500 g/ha [15] of 100%.

From patent US6479435B1, “Diaryl ethers and processes for their preparation and herbicidal and desiccant compositions containing them” (ISK Americas Incorporated, priority 1997, dated 2002)
